Patent US10912774B2, “Pyrimidine FGFR4 inhibitors” (priority 2013, dated 2021)

System: HEP3B tumor xenografts
Format: in vivo
[1] = Hep3B xenograft, 60 mg/kg orally twice daily

Row | SMILES | efficacy compared with compound 108 [1] | tolerability (health of animals) [1] | efficacy compared with BGJ398 (Hep3B xenograft, 25, 37.5 or 50 mg/kg i.p. twice daily)
1 | CCN1CCN(c2ccc(Nc3cc(N(C)C(=O)Nc4c(Cl)c(OC)cc(OC)c4Cl)ncn3)cc2)CC1 [BGJ398] | efficacy comparable to compound 108 | had to be terminated on Day 11 due to poor health of animals | 
2 | C=CC(=O)Nc1cc(N2CCN(CC)CC2)ccc1Nc1cc(N(C)C(=O)Nc2c(Cl)c(OC)cc(OC)c2Cl)ncn1 [Compound 108, N-(2-(6-(3-(2,6-Dichloro-3,5-dimethoxyphenyl)-1-methylureido)pyrimidin-4-ylamino)-5-(4-ethylpiperazin-1-yl)-phenyl)acrylamide] |  |  | more efficacious than BGJ398 at tolerable dosage levels
